The values that follow come from ChEMBL document CHEMBL4346659, “Design, synthesis and evaluation of novel 7H-pyrrolo[2,3-d]pyrimidin-4-amine derivatives as potent, selective and reversible Bruton's tyrosine kinase (BTK) inhibitors for the treatment of rheumatoid arthritis” (Eur J Med Chem, 2019).

Broadly, the IC50 is the concentration that gives 50% inhibition. High values mean weaker potency in that assay, low ones greater potency in that assay. For orientation: inhibition means the change of the read-out against control, counted positive when it falls.

One test concerns Daudi. Nature of the test: Antiproliferative activity against human Daudi cells. Format: functional, cell-based. Conditions: Homo sapiens, Daudi.
For the next test, the system named is JeKo-1. In words: Antiproliferative activity against human JeKo1 cells. It is filed as functional, cell-based. The note with it: Homo sapiens, JeKo-1.
For test [1], the target named is T1, Tyrosine-protein kinase BTK (Homo sapiens, UniProt Q06187). Nature of the test: Inhibition of BTK (unknown origin) at 1 uM in the presence of ATP by caliper mobility shift assay relative to control.
T1 sequence (Q06187 whole entry): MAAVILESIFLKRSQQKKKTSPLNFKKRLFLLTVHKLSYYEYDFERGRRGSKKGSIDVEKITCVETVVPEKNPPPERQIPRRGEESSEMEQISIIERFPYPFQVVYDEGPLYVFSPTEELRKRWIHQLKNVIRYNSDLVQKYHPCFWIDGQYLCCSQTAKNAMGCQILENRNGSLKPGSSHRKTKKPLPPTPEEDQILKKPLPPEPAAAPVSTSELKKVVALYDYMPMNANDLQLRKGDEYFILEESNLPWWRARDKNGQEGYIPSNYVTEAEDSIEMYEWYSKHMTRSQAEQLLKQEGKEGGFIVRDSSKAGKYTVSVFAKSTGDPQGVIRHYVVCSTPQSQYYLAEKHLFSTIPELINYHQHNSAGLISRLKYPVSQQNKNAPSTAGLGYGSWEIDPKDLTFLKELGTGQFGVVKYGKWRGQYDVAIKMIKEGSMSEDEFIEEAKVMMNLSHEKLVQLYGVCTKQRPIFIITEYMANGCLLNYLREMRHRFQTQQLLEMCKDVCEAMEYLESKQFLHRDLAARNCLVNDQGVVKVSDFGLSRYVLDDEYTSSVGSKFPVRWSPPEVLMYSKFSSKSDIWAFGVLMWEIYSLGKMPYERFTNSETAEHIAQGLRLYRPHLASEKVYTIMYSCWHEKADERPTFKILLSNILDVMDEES
The next test relates to Ramos. Nature of the test: Antiproliferative activity against human Ramos cells. Conditions: Homo sapiens, Ramos. It is filed as functional, cell-based.
In test [2] the target is T1, Tyrosine-protein kinase BTK. Nature of the test: Inhibition of BTK (unknown origin) at 0.1 uM in the presence of ATP by caliper mobility shift assay relative to control.

As for `CN(C)C(=O)N1CC[C@H](n2cc(-c3ccc4c(c3)OCO4)c3c(N)ncnc32)C1`, the IC50 with Daudi is 14.6 µM; with JeKo-1, 24.2 µM; with Ramos, 27.7 µM. Further, the inhibition came to 42.6% in test [1] and 1.87% in test [2].

As for `Nc1ncnc2c1c(-c1cc3ccccc3o1)cn2[C@H]1CCN(C[C@@H]2CO2)C1`, the IC50 in the test on Daudi came out at 4.51 µM; with JeKo-1, 2.82 µM; in the test on Ramos, 6.74 µM. Also, the inhibition in test [1] was 59.1%; in test [2] it was 20.2%.

Consider `Nc1ncnc2c1c(-c1ccc3c(c1)OCO3)cn2[C@H]1CCN(Cc2cc(F)cc(F)c2)C1`, for which the IC50 in the test on Daudi was 11.6 µM; in the test on JeKo-1 it was 1.69 µM; in the test with Ramos it was 6.6 µM. Further, the inhibition came to 30.2% in test [1] and 6.07% in test [2].

Turning to `Nc1ncnc2c1c(-c1ccc3c(c1)OCO3)cn2C1=CCN(C[C@@H]2CO2)CC1`, the values for the IC50 in the test with Daudi, with JeKo-1 and in the test with Ramos were 5.02 µM, 12.8 µM and 2.11 µM, respectively. For the same compound, the figures for the inhibition in test [1] and in test [2] were 42.6% and 1.81%, respectively.

On to `Nc1ncnc2c1c(-c1cccc(-n3ncc4ccccc4c3=O)c1)cn2[C@H]1CCN(C[C@@H]2CO2)C1`, for which the IC50 was 14.6 µM with Daudi, 15.2 µM in the test on JeKo-1 and 15.2 µM in the test on Ramos. The inhibition is 17.5% in test [1] and 3.41% in test [2].

On to `CC(C)(C)c1ccc(C(=O)Nc2cccc(-c3cn([C@H]4CCN(C[C@@H]5CO5)C4)c4ncnc(N)c34)c2)cc1`, for which the concentration for half-maximal inhibition (IC50) is 5.97 µM with Daudi, 2.54 µM in the test on JeKo-1 and 4.82 µM in the test with Ramos. Besides, the inhibition in test [1] was 22.2%; in test [2], 2.29%.

`CCOC(=O)C(C)N1CC[C@H](n2cc(-c3ccc4c(c3)OCO4)c3c(N)ncnc32)C1` (some centres not stated): the 50% inhibitory concentration (IC50) came out at 25.5 µM in the test with Daudi, 1.21 µM in the test with JeKo-1 and 9.92 µM in the test with Ramos. For the same compound, the inhibition in test [1] was 44.1%; in test [2] it was 5.71%.

In the case of `Nc1ncnc2c1c(-c1ccc3c(c1)OCO3)cn2CC1CCN(C[C@@H]2CO2)CC1`, the values for the 50% inhibitory concentration (IC50) in the test with Daudi, with JeKo-1 and with Ramos were 12.5 µM, 15.3 µM and 10.9 µM, respectively. Further, the results for the inhibition in test [1] and in test [2] were 59.9% and 14.2%, respectively.

For the compound `Nc1ncnc2c1c(-c1ccc3c(c1)OCO3)cn2C[C@H]1CCN(C[C@@H]2CO2)C1`, the IC50 in the test with Daudi came out at 15 µM; in the test with JeKo-1 it was 7.25 µM; with Ramos it was 27 µM. The inhibition was determined as 63.7% in test [1] and 23.9% in test [2].

Take `Nc1ncnc2c1c(-c1ccc3c(c1)OCO3)cn2[C@H]1CCN(C(=O)c2ccccn2)C1`: the IC50 in the test with Daudi was 12.3 µM; with JeKo-1 it was 19.5 µM; in the test on Ramos, 20.7 µM. In addition, the figures for the inhibition in test [1] and in test [2] were 28.1% and 1.45%, respectively.

For the compound `CC(C)(C)c1ccc(C(=O)Nc2ccc(-c3cn([C@H]4CCN(C[C@@H]5CO5)C4)c4ncnc(N)c34)cc2)cc1`, the IC50 was found to be 5.98 µM in the test on Daudi, 3.29 µM in the test on JeKo-1 and 2.97 µM in the test on Ramos. The inhibition in test [1] was 53.8%; in test [2], 15.7%.

As for `C[C@@H]1C[C@H](n2cc(-c3ccc4c(c3)OCO4)c3c(N)ncnc32)CN1C[C@@H]1CO1`, the results for the IC50 in the test on Daudi, in the test with JeKo-1 and in the test on Ramos were 10.9 µM, 4.61 µM and 7.97 µM, respectively. In addition, the inhibition turned out to be 47.1% in test [1] and 12.7% in test [2].

`Nc1ncnc2c1c(-c1ccc3c(c1)OCO3)nn2C[C@H]1CCCN1C[C@@H]1CO1`: the half-maximal inhibitory concentration (IC50) in the test on Daudi amounted to 30.5 µM; in the test with JeKo-1, 43.2 µM; with Ramos it was 47.4 µM. The values for the inhibition in test [1] and in test [2] were 56.7% and 13.9%, respectively.

For `CC1(C(=O)N2CC[C@H](n3cc(-c4ccc5c(c4)OCO5)c4c(N)ncnc43)C2)COC1`, the IC50 with Daudi is 30.5 µM; in the test on JeKo-1, 36.4 µM; with Ramos it was 39 µM. For the same compound, the inhibition in test [1] is 22.4%; in test [2], -0.35%.

As for `Nc1ncnc2c1c(-c1ccc(C(=O)Nc3ccc(Oc4ccccc4)cc3)cc1)cn2[C@H]1CCN(C[C@@H]2CO2)C1`, the IC50 is 4.39 µM in the test on Daudi, 2.07 µM with JeKo-1 and 3.63 µM with Ramos. Also, the inhibition in test [1] worked out at 36.9%; in test [2], 7.58%.

As to `Nc1ncnc2c1c(-c1ccc(Oc3ccccc3)cc1)cn2C[C@H]1CCCN1C[C@@H](O)CO`, the concentration for half-maximal inhibition (IC50) in the test with Daudi is 14.4 µM; with JeKo-1, 9.54 µM; with Ramos, 13.5 µM. Besides, the values for the inhibition in test [1] and in test [2] were 62.5% and 23.9%, respectively.

As to `Nc1ncnc2c1c(-c1ccc(NC(=O)c3ccccc3)cc1)cn2[C@H]1CCN(C[C@@H]2CO2)C1`, the results for the IC50 with Daudi, in the test with JeKo-1 and in the test on Ramos were 3.18 µM, 5.39 µM and 2.25 µM, respectively. In addition, the inhibition in test [1] worked out at 22.9%; in test [2] it was 2.53%.

Turning to `Nc1ncnc2c1c(-c1cnc3[nH]ccc3c1)cn2[C@H]1CCN(C[C@@H]2CO2)C1`, the IC50 in the test with Daudi was found to be 2.99 µM; in the test on JeKo-1 it was 9.44 µM; with Ramos, 4.65 µM. Moreover, the inhibition in test [1] was 46.6%; in test [2], 12.8%.

On to `Nc1ncnc2c1c(-c1ccc3c(c1)OCO3)cn2[C@H]1CCN(CC2CC2)C1`, for which the IC50 in the test with Daudi turned out to be 24.6 µM; in the test on JeKo-1, 1.45 µM; with Ramos it was 16.9 µM. The inhibition worked out at 15.2% in test [1] and 0.04% in test [2].

As to `Nc1ncnc2c1c(-c1ccc3c(c1)OCO3)cn2C[C@H]1CCCN(C[C@@H]2CO2)C1`, the concentration for half-maximal inhibition (IC50) in the test with Daudi turned out to be 10.6 µM; in the test with JeKo-1, 7.96 µM; in the test with Ramos, 15.1 µM. For the same compound, the inhibition in test [1] is 70.3%; in test [2] it was 34.7%.

On to `Nc1ncnc2c1c(-c1cc3ccccc3o1)cn2[C@H]1CCN(C[C@H]2CO2)C1`, for which the IC50 in the test on Daudi was determined as 4.21 µM; with JeKo-1, 0.63 µM; in the test on Ramos it was 1.65 µM. The inhibition in test [1] is 62.9%; in test [2], 17.4%.

For the compound `CC(C)(C)c1ccc(COc2ccc(-c3cn([C@H]4CCN(C[C@@H]5CO5)C4)c4ncnc(N)c34)cc2)cc1`, the 50% inhibitory concentration (IC50) in the test with Daudi is 6.97 µM; in the test on JeKo-1, 5.97 µM; with Ramos, 4.21 µM. In addition, the values for the inhibition in test [1] and in test [2] were 7.63% and 3.73%, respectively.

As for `Nc1ncnc2c1c(-c1ccc3c(c1)OCO3)cn2C1CCN(C[C@@H]2CO2)CC1`, the results for the IC50 with Daudi, in the test on JeKo-1 and in the test on Ramos were 21.3 µM, 12.9 µM and 32.8 µM, respectively. Besides, the inhibition in test [1] turned out to be 89.4%; in test [2] it was 60.2%.

For the compound `Nc1ncnc2c1c(-c1ccc3c(c1)OCO3)cn2[C@H]1CCN(CCCO)C1`, the IC50 in the test with Daudi stood at 29.6 µM; with JeKo-1, 3.13 µM; in the test on Ramos it was 20.9 µM. Also, the figures for the inhibition in test [1] and in test [2] were 22.4% and 8.43%, respectively.

As for `N#CCCN1CC[C@H](n2cc(-c3ccc4c(c3)OCO4)c3c(N)ncnc32)C1`, the concentration for half-maximal inhibition (IC50) in the test on Daudi worked out at 10.2 µM; with JeKo-1, 1.84 µM; in the test with Ramos, 13.2 µM. Besides, the figures for the inhibition in test [1] and in test [2] were 67.8% and 21.6%, respectively.

Turning to `Nc1ncnc2c1c(-c1cnc3[nH]ccc3c1)cn2C[C@H]1CCCN1C[C@@H]1CO1`, the figures for the inhibition in test [1] and in test [2] were 26.9% and 13.7%, respectively.
